Results from ChEMBL document CHEMBL6092206, “Discovery and Characterization of BAY-184: A New Potent and Selective Acylsulfonamide-Benzofuran In Vivo-Active KAT6AB Inhibitor” (J Med Chem, 2024).
Active and inactive are the calls of the source. No cut-off for these calls is given here.

Assays:
[1] = Apparent permeability across apical to basolateral side in human Caco-2 cells at 2 uM pH 7.2 measured for 2 hrs by LC-MS/MS analysis; type: ADME, cell-based; conditions: caco-2, pH 7.2, 2 h, 2 µM
[2] = Stability of compound in HCL buffer at pH 1 measured for 24 hrs by HPLC analysis; type: physicochemical; conditions: pH 1, 24 h
[3] = Stability of compound in PBS buffer at pH 7 measured for 24 hrs by HPLC analysis; type: physicochemical; conditions: pH 7, 24 h
[4] = Stability of compound in borate buffer at pH 10 measured for 24 hrs by HPLC analysis; type: physicochemical; conditions: pH 10, 24 h
[5] = test system: MFM-223; assay: Antiproliferative activity against human MFM-223 cells assessed as inhibition of cell growth incubated for 6 days by alamar blue staining based assay relative to control; type: functional; conditions: time 6 day
[6] = test system: MDA-MB-436; assay: Antiproliferative activity against human MDA-MB-436 cells assessed as inhibition of cell growth incubated for 6 days by alamar blue staining based assay relative to control; type: functional; conditions: time 6 day
[7] = test system: MDA-MB-231; assay: Antiproliferative activity against human MDA-MB-231 cells assessed as inhibition of cell growth incubated for 6 days by alamar blue staining based assay relative to control; type: functional; conditions: time 6 day
[8] = Metabolic stability in rat liver microsome assessed as clearance measured for 2 to 60 mins by LC-MS/MS analysis; type: ADME; conditions: microsomes, time 2-60 min
[9] = Metabolic stability in mouse liver microsome assessed as clearance measured for 2 to 60 mins by LC-MS/MS analysis; type: ADME; conditions: microsomes, time 2-60 min
[10] = Metabolic stability in rat hepatocyte assessed as clearance measured for 2 to 90 mins by LC-MS/MS analysis; type: ADME, cell-based; conditions: hepatocytes, time 2-90 min
[11] = Metabolic stability in mouse liver microsome assessed as maximum bioavailability of the drug measured for 2 to 60 mins by LC-MS/MS analysis; type: ADME; conditions: liver microsomes, time 2-60 min, read-out: Fmax
[12] = Metabolic stability in dog liver microsome assessed as maximum bioavailability of the drug measured for 2 to 60 mins by LC-MS/MS analysis; type: ADME, Canis lupus familiaris; conditions: liver microsomes, time 2-60 min, read-out: Fmax
[13] = Metabolic stability in human hepatocyte assessed as maximum bioavailability of the drug measured for 2 to 90 mins by LC-MS/MS analysis; type: ADME; conditions: hepatocytes, time 2-90 min, read-out: Fmax
[14] = Metabolic stability in rat hepatocyte assessed as maximum bioavailability of the drug measured for 2 to 90 mins by LC-MS/MS analysis; type: ADME; conditions: hepatocytes, time 2-90 min, read-out: Fmax
[15] = Clearance in mouse at 0.5 mg/kg, iv; type: ADME, organism-based; conditions: in vivo
[16] = Volume of distribution at steady state in male Wistar rat at 0.5 mg/kg, iv or 1 mg/kg, po measured upto 24 hrs by LC-MS/S analysis; type: ADME, organism-based; conditions: in vivo
[17] = Volume of distribution at steady state in mouse at 0.5 mg/kg, iv; type: ADME, organism-based; conditions: in vivo, read-out: Vdss
[18] = AUC in male Wistar rat at 0.5 mg/kg, iv measured upto 24 hrs by LC-MS/S analysis; type: ADME, organism-based; conditions: in vivo
[19] = AUC in mouse at 0.5 mg/kg, iv; type: ADME, organism-based; conditions: in vivo
[20] = Plasma protein binding in human assessed as unbound fraction equilibrium dialysis based LC-MS/MS analysis; type: ADME, cell-free
[21] = Plasma protein binding in rat assessed as unbound fraction equilibrium dialysis based LC-MS/MS analysis; type: ADME, cell-free
[22] = Stability in human plasma assessed as parent compound remaining after 4 hrs; type: ADME, cell-free
[23] = test system: ZR-75-1; assay: Antitumor activity against human ZR-75-1 cells xenografted in po dosed female estradiol-primed NMRI mouse assessed as inhibition of tumor growth administered twice daily measured at 2 to 3 days; type: functional, organism-based; conditions: time 2-3 day
[24] = test system: ZR-75-1; assay: Antitumor activity against human ZR-75-1 cells xenografted in female estradiol-primed NMRI mouse assessed as reduction in H3K23 acetylation level in tumor at 100 mg/kg, po administered twice daily measured after 1 to 3 hrs by immunohistochemical analysis; type: functional, organism-based; conditions: time 1-3 hrs
[25] = test system: LCLC-97TM1; assay: Antiproliferative activity against human LCLC-97TM1 cells assessed as inhibition of cell proliferation incubated for 6 days by alamar blue staining based assay; type: functional; conditions: time 6.0 day
[26] = target: Voltage-gated inwardly rectifying potassium channel KCNH2 (Homo sapiens, UniProt Q12809); assay: Inhibition of hERG; type: toxicity
Voltage-gated inwardly rectifying potassium channel KCNH2, sequence (Q12809 whole entry): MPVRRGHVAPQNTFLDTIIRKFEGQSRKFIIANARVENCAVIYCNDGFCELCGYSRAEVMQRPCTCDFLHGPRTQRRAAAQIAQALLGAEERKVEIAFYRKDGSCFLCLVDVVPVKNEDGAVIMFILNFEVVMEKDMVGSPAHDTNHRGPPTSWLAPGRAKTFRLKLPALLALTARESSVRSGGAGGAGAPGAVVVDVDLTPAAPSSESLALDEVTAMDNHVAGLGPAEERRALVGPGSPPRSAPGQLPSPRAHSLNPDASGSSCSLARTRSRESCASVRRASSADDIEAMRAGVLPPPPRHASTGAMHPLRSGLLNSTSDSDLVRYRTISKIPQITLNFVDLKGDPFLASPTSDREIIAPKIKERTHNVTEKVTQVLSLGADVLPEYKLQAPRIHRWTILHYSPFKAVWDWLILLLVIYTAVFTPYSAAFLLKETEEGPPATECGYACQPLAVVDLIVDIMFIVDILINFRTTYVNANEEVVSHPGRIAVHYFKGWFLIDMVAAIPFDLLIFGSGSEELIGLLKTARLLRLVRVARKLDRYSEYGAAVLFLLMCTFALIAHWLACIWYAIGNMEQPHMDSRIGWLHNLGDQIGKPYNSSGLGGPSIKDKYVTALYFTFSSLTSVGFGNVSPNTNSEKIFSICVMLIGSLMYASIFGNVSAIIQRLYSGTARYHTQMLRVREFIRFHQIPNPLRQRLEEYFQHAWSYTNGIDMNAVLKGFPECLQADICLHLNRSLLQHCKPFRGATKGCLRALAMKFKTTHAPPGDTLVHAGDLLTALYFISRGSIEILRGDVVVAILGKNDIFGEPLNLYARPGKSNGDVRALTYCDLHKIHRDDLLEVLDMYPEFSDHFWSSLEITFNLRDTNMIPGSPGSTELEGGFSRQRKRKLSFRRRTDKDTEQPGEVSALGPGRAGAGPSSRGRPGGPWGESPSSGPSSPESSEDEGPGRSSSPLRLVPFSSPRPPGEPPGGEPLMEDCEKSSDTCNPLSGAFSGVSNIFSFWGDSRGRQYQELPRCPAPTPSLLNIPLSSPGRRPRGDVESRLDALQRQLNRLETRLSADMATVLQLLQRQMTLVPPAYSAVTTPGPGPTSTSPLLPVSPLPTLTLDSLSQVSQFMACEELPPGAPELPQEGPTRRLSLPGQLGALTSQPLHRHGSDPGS

[27] = Mutagenicity in Salmonella typhimurium TA1537 by Ames test; type: toxicity; conditions: salmonella enterica subsp. enterica serovar typhimurium
[28] = Mutagenicity in Salmonella typhimurium TA98 by Ames test; type: toxicity; conditions: salmonella enterica subsp. enterica serovar typhimurium
[29] = Mutagenicity in Salmonella typhimurium TA98 in presence of S9 fraction by Ames test; type: toxicity, subcellular; conditions: salmonella enterica subsp. enterica serovar typhimurium
[30] = target: Histone acetyltransferase KAT7 (Homo sapiens, UniProt O95251); assay: Inhibition of full length N-terminal GST-tagged human recombinant KAT7 expressed in Sf9 insect cells using H4-derived peptide as substrate incubated for 30 mins in presence of AcCoA by TR-FRET assay
Histone acetyltransferase KAT7, sequence (O95251 whole entry): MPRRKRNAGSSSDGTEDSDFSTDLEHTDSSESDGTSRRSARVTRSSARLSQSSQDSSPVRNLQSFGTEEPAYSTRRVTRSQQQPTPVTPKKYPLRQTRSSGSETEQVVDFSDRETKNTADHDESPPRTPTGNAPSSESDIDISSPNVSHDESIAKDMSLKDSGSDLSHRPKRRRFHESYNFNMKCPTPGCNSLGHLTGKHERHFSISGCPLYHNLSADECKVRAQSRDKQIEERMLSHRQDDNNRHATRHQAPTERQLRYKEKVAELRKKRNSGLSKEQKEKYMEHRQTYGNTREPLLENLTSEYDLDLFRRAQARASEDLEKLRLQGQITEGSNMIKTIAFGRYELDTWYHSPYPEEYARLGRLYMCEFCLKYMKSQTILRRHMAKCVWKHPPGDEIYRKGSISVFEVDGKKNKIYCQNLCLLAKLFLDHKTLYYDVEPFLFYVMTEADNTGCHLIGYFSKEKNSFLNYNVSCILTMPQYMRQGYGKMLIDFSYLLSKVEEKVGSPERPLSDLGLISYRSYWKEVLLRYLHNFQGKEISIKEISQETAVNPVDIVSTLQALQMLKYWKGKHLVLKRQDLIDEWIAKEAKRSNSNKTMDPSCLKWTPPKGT

Papp [1]: 14.6 ×10⁻⁶ cm/s
Stability [2]: Stable
Stability [3]: Stable
Stability [4]: Stable
CLH [8]: 50 mL/min/kg
CLH [9]: 63.3 mL/min/kg
CLH [10]: 41.7 mL/min/kg
Fh [11]: 29%
Fh [12]: 80%
Fh [13]: 25%
Fh [14]: 42%
clearance [15]: 9.33 mL/min/kg
Vdss [16]: 0.13 L/kg
Vd [17]: 0.32 L/kg
AUC [18]: 5.5 kg·h/L
AUC [19]: 2.5 kg·h/L
Fu [20]: 0.042%
Fu [21]: 0.048%
Stability [22]: Stable
IC50 [30]: 1.07 µM
SMILES: CN(C)c1ccc2cc(C(=O)NS(=O)(=O)c3ccccc3-c3ccccc3)oc2c1
inhibition (INH) [5]: 61%
inhibition (INH) [6]: 0%
inhibition (INH) [7]: 0%
Activity [23]: Dose-dependent-effect
Activity [24]: Active
Activity [25]: Active
inhibition (INH) [26]: Not_active
Activity [27]: Non-toxic
Activity [28]: Non-toxic
Activity [29]: Non-toxic
